The source made the active and inactive calls. The calls are words filed in the database; no cut-off is given here.
What was measured:
Type in all cases: functional, cell-based
[1] = test system: Caco-2; assay: Cytotoxicity against human Caco-2 cells at 100 uM after 72 hrs by MTT assay
[2] = test system: MIA PaCa-2; assay: Cytotoxicity against human MIAPaCa2 cells at 0.1 to 100 uM after 72 hrs by MTT assay
[3] = test system: HT-29; assay: Cytotoxicity against human HT-29 cells at 0.1 to 100 uM after 72 hrs by MTT assay
[4] = test system: HeLa; assay: Cytotoxicity against human HeLa cells at 0.1 to 100 uM after 72 hrs by MTT assay
[5] = test system: Caco-2; assay: Cytotoxicity against human Caco-2 cells at 0.1 to 100 uM after 72 hrs by MTT assay
[6] = test system: HEp-2; assay: Cytotoxicity against human Hep2 cells at 0.1 to 100 uM after 72 hrs by MTT assay

Compound	Activity [1]	Activity [2]	Activity [3]	Activity [4]	Activity [5]	Activity [6]
Cc1nc2ccccc2c2ccc(NC(=O)NCCNC(=O)Nc3ccc4c(c3)c(C)nc3ccccc34)cc12	inactive	–	–	–	–	–
Cc1nc2ccccc2c2ccc(NC(=O)NCCCCCCNC(=O)Nc3ccc4c(c3)c(C)nc3ccccc34)cc12	inactive	–	–	–	–	–
Cc1nc2ccccc2c2ccc(NC(=O)NCCCCCCCCCNC(=O)Nc3ccc4c(c3)c(C)nc3ccccc34)cc12	inactive	inactive	inactive	inactive	inactive	inactive

Source: ChEMBL document CHEMBL1208667, “Permanent positive charge strongly influences DNA/RNA binding and antiproliferative activity of urea-phenanthridinium conjugates” (Eur J Med Chem, 2010)
